Source: patent US20180168215A1, “NUTRITIONAL COMPOSITIONS CONTAINING INOSITOL AND USES THEREOF” (Mead Johnson Nutrition Company, priority 2016, published 2018)

Assays:
[1] = system: Hippocampal cultures from embryonic rats; test: Inositol plus DHA, presynaptic Bassoon puncta by quantitative immunostaining; assay type: cell-based, rat; details: compared to a DMSO control; FIG. 7
Protocol: Example 5 illustrates synergistic effect of inositol and DHA. FIG. 7 illustrates the effect of inositol in combination with DHA for presynaptic development. Hippocampal cultures from embryonic rats were analyzed by quantitative immunostaining. […] (See FIG. 7).

[2] = system: rat hippocampal neurons; test: FM dye release on electrical field stimulation of neurons in microfluidic devices; assay type: cell-based; details: for releasing FM Dye as an indicator of neural transmitter release: 9DIV
From the text: Example 1 illustrates that inositol has a does dependent effect on neurotransmission. Due to the continuum of synapse development in vivo, it is difficult to quantitatively assess synapse development. However, in order to provide at time stamp for synapse development, Example 1 is directed to a PDL-coated bead in a culture medium designed to induce synaptic formation. […] By adding the PDL-coated beads to the axonal compartment of the microfluidic compartment, it allows for the visualization of presynaptic terminal development without the overwhelming signal from somata or dendrites. Indeed, this experimental set-up allows for the subjection of distinct compartments to nutrients of interest. The method used herein is described in the reference, Taylor, A. M. et al. “A microfluidic culture platform for CNS axonal injury regeneration and transport.” Nat Methods, 2005. 2(8): p. 599-605, which is incorporated by reference. Briefly, the microfluidic chip contains four chambers, two at the left side and two at the right connected by microgrooves in the center. The cortical and hippocampal dissociated neurons from embryonic rat (E18) and mouse (E17) were seeded in the left (somal) side of the chambers with a density of approximately 3×10^6 cells/ml, yielding approximately 3,000 cells in the somal side of the chamber. The PDL-coated nanobeads were added to the right side of the chamber. In each testing condition, the culture medium contains different nutrient. The immunohistochemistry analysis was performed in order to assess the impact on synaptic development provided by the nutrients. The cultures were fixed using 4% paraformaldehyde for 30 min at room temperature. The cultures then were washed twice with phosphate-buffered saline (PBS) for 5 min, and then permeabilized using PBS with 0.2% Triton X-100 for 30 min. To block nonspecific binding, PBS with 0.2% Triton X-100 and 10% goat serum was used. The primary antibodies were exposed to PBS with 0.2% Triton X-100 and 5% goat serum at 4° C. overnight, followed by brief rinsing of the cultures 3 times for 10 min. They were then incubated them with secondary antibody (conjugated with Alexa Fluor 488 or 568) in PBS for 1 h. The images were taken and quantified by using confocal microscopy. At embryonic Day 18, rat hippocampal neurons were plated on to microfluidic devices and inositol was added to both somal and axonal compartments from second day in vitro. Cultures were exposed with different concentrations of inositol at 200 μM, 600 μM, 1200 μM, or the control 40 μM, every 3 days by completely changing the media every three days. At 9 days in vitro (9DIV) the cultures were loaded with FM dye and electrical field stimulation of somal compartments was performed on each for about one minute.

[3] = system: hippocampal neurons; test: PDL-coated bead presynaptic formation, immunostaining for synapsin1, bassoon and β-tubulin III; assay type: cell-based, rat
From the text: Example 1 illustrates that inositol has a does dependent effect on neurotransmission. Due to the continuum of synapse development in vivo, it is difficult to quantitatively assess synapse development. However, in order to provide at time stamp for synapse development, Example 1 is directed to a PDL-coated bead in a culture medium designed to induce synaptic formation. […] By adding the PDL-coated beads to the axonal compartment of the microfluidic compartment, it allows for the visualization of presynaptic terminal development without the overwhelming signal from somata or dendrites. Indeed, this experimental set-up allows for the subjection of distinct compartments to nutrients of interest. The method used herein is described in the reference, Taylor, A. M. et al. “A microfluidic culture platform for CNS axonal injury regeneration and transport.” Nat Methods, 2005. 2(8): p. 599-605, which is incorporated by reference. Briefly, the microfluidic chip contains four chambers, two at the left side and two at the right connected by microgrooves in the center. […] The images were taken and quantified by using confocal microscopy. […] The measurements were quantified and subjected to statistical analysis by two-way ANOVA.

[4] = system: E18 hippocampal neurons; test: Axon growth in microfluidic devices, immunohistochemistry with β-tubulin III; assay type: cell-based; details: addition of 600 μM inositol vs inositol free media
From the text: Example 3 illustrates that inositol exposure increases neuronal axon growth. Generally, an axon is a long, slender projection of a neuron that conducts electrical impulses away from the neuron's cell body. Myelinated axons are generally known as nerve fibers. Axons make contact with other neurons at synapses. Therefore, the healthy status of a neural axon is fundamentally important for proper brain function. The integrity and growth of axons can be measured by immunohistochemistry with β-tubulin III. Indeed, illustrated herein, the absence of inositol causes axon growth to stop and truncate prematurely; while supplementation of inositol provides healthy growth of neuronal axons. […] The axons of hippocampal neurons lost continuity and disintegrated. […] Taken together, inositol is essential for axon development and higher concentrations of inositol benefits the extension of axons.

[5] = system: hippocampal cultures from embryonic E18 rats; test: Synaptogenesis in embryonic neuronal culture, quantitative immunostaining for Bassoon, Homer and MAP2; assay type: cell-based, rat
From the text: Example 4 illustrates that supplementation with inositol produces strong synaptogenic effects. Nerve cells communicate with each other in the brain through specialized junctions, called synapses. These junctions start to form in the human brain before birth and continue to develop at a rapid rate in the early postnatal period. Changes in this synaptogenic process impair the wiring of the brain and can cause developmental disorders. While effects related to caloric intake and selected nutrients on general brain function have been characterized, limited information exists on the specific roles of nutrients and natural nutrients in synapse formation. Accordingly, Example 4 illustrates the effects of inositol on hippocampal neurons and analyzed them by quantitative immunostaining for synaptic markers. Dissociated neuronal cultures were prepared from rat hippocampus and used in this culture system. It was observed that neurons undergo most rapid synaptogenesis at or by day 14 in vitro (14DIV). By day 21 in vitro (21 DIV), most neurons have become mature and synapse formation occurs at a slower rate. Accordingly, testing at day 14 or 21 in vitro therefore allows for distinguishing nutrient effects at different developmental stages. The neurons were grown in either in standard neurobasal NB medium which contains 40 uM inositol according to the manufacturer; or in 200 μM inositol using custom made medium from LifeTechnology that lacks inositol and that was supplemented with inositol to 200 μM; or without inositol using just the custom made medium from the same manufacturer that lacks inositol. The neurons and synapses were determined by staining Bassoon as a presynaptic active zone marker in green fluorescence, Homer as a postsynaptic marker in red, and MAP2 as a dendrite marker in blue. […] Quantitively, increasing inositol to higher concentrations further promoted its synaptogenic effects (see FIG. 4D) at pre-synaptic sites. The pre-synapses were measured by quantifying the number of bassoon in the puncta per 10 micron dendrite. […] The results were determined by quantitative immunostaining for the presynaptic marker (Bassoon) and the excitatory postsynaptic (Homer). (See. FIG. 4E). Indeed, as shown in FIGS. 4A-4C, hippocampal cultures from embryonic E18 rats grown at the indicated inositol concentrations were analyzed by quantitative immunostaining. FIG. 4A illustrates neurons grown under control conditions and stained for the presynaptic marker Bassoon (in green), the postsynaptic scaffold protein Homer (in red), and the dendritic marker MAP2 (in blue). FIG. 4B illustrates neurons grown with supplemented inositol at 200 μM from 4-14 days in vitro. FIG. 4C illustrates neurons grown without inositol. […] Additionally, FIG. 5 illustrates that treatment with inositol promotes the alignment of pre- and post-synaptic sites. […] Hippocampal cultures from embryonic rats were analyzed by quantitative immunostaining. […] In brief, the presynaptic markers were stained with […] and are shown in green and the post-synaptic markers were stained with homer in and are shown in red. The co-localization of pre- and post-synapse was determined the appearance of a yellow signal, which is produced when green color mixes with red. The quantification was analyzed by using Imag J software and co-localization was calculated by counting the numbers of yellow puncta per […] dendrite. Briefly, hippocampal cultures from embryonic rats were analyzed by quantitative immunostaining. […] The pre-synapse size was determined by the puncta size of bassoon; while the post-synapse size by that of homer. The histochemistry images were analyzed by using Image J software.

Question: Which results are given for O[C@H]1[C@H](O)[C@@H](O)[C@H](O)[C@@H](O)[C@H]1O [inositol]?
Answer: presynaptic Bassoon puncta [1]: increased the presynaptic Basson puncta; releasing FM Dye as an indicator of neural transmitter release ([2]; 200 μM inositol vs control wells containing 40 μM inositol): significant increases in releasing FM Dye; releasing FM Dye as an indicator of neural transmitter release ([2]; 600 μM inositol vs control wells containing 40 μM inositol): significant increases in releasing FM Dye; neural transmitter releasing, consistency of results ([2]; 600 μM inositol wells): consistent and robust results with enhanced neural transmitter releasing; concentration at which the highest effects on FM dye releasing were observed ([2]; tested 200, 600, 1200 μM, dose dependent, statistically significant): 600 µM; synapsin 1 and bassoon clustering at the bead-axon terminals ([3]; 10DIV hippocampal neurons, FIGS. 2A and 2B): increases synapsin 1 and bassoon clustering; presynaptic assembly ([3]; inositol at 600 μM vs 40 μM control, FIG. 2A): significantly increases the presynaptic assembly; axon growth [4]: restore and promote the healthy growth of axons; pre-synaptic puncta density (number of bassoon puncta per 10 micron dendrite) ([5]; compared to control as well as DHA at 20 μM, FIG. 4D): increase the pre-synaptic puncta density in a statistically significant manner; post-synaptic sites as measured by post-synaptic marker (Homer) density ([5]; higher concentrations of inositol, compared to the control and DHA at 20 μM, FIG. 4E): enhance post-synaptic sites; overall health of neuron ([5]; increasing inositol): promotes the overall health of neuron; density of pre- and post-synaptic specializations ([5]; increasing inositol from standard 40 μM to 200 μM): substantially elevates the density of pre- and post-synaptic specializations; effect on synapse number relative to DHA ([5]; lowest tested concentrations of inositol): effects comparable to DHA; size of presynaptic sites (Bassoon puncta size) ([5]; supplementation from 4-14 days in vitro, FIG. 6A): increase the size of presynaptic sites; size of postsynaptic sites (Homer puncta size) ([5]; supplementation from 4-14 days in vitro, FIG. 6B): increase the size; co-localization of pre-synaptic (Bassoon) with post synaptic (Homer) sites ([5]; treatment from 4-14 days in vitro, FIG. 5): increased the extent to which pre-synaptic sites (as measured by Bassoon staining) co-localized with post synaptic sites; synapse number ([5]; treatment from 7-14 days in vitro): increased synapse number
